Measurements: publication PMC7265341, “Quantifying CDK inhibitor selectivity in live cells” (Nature Communications, 2020)

What was measured:
[1] = target: CDK15/Cyclin Y (Homo sapiens, UniProt Q96Q40); assay: NanoBRET live-cell target engagement, NanoLuc-CDK15/Cyclin Y in HEK-293; type: binding; conditions: CDK15/Y, 10µM
[2] = target: CDK20/Cyclin H (Homo sapiens, UniProt Q8IZL9); assay: NanoBRET live-cell target engagement, NanoLuc-CDK20/Cyclin H in HEK-293; type: binding; conditions: CDK20/H; 10µM
[3] = target: CDK7 (Homo sapiens, UniProt P50613); assay: NanoBRET live-cell target engagement, NanoLuc-CDK7 in HEK-293; type: binding; conditions: CDK7, 10µM
[4] = target: CDK2/Cyclin E1 (Homo sapiens, UniProt P24941); assay: NanoBRET live-cell target engagement, CDK2-NanoLuc/Cyclin E1 in HEK-293; type: binding; conditions: CDK2/E1, 10µM
[5] = target: CDK5/CDK5R1 (Homo sapiens, UniProt Q00535); assay: NanoBRET live-cell target engagement, CDK5-NanoLuc/CDK5R1 in HEK-293; type: binding; conditions: CDK5/CDK5R1, 10µM
[6] = target: CDK13/Cyclin K (Homo sapiens, UniProt Q14004); assay: NanoBRET live-cell target engagement, CDK13-NanoLuc/Cyclin K in HEK-293; type: binding; conditions: CDK13/K, 10µM
[7] = target: CDK17/Cyclin Y (Homo sapiens, UniProt Q00537); assay: NanoBRET live-cell target engagement, CDK17-NanoLuc/Cyclin Y in HEK-293; type: binding; conditions: CDK17/Y, 10µM
[8] = target: CDK3/Cyclin E1 (Homo sapiens, UniProt Q00526); assay: NanoBRET live-cell target engagement, CDK3-NanoLuc/Cyclin E1 in HEK-293; type: binding; conditions: CDK3/E1, 10µM
Sequence of CDK3/Cyclin E1 (Q00526 whole entry): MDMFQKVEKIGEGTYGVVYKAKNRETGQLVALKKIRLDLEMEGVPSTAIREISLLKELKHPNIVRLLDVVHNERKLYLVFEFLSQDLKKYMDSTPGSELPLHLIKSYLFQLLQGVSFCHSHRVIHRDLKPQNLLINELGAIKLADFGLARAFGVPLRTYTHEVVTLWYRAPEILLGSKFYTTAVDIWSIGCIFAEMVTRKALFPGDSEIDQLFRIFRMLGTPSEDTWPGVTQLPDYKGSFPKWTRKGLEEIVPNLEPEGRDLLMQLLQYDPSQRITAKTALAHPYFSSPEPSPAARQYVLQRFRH
Sequence of CDK3/Cyclin E1 (P24864 whole entry partner): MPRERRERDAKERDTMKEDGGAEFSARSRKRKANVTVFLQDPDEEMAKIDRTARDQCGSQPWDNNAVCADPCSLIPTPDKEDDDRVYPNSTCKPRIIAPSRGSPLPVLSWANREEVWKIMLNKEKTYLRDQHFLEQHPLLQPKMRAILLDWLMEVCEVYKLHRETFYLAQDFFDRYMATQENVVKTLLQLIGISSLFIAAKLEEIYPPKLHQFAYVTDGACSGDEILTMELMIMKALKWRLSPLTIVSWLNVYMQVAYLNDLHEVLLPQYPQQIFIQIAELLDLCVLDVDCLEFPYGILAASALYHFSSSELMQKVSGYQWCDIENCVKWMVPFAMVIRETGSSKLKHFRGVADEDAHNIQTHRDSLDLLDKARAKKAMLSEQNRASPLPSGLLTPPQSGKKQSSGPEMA

[9] = target: CDK9/Cyclin K (Homo sapiens, UniProt P50750); assay: NanoBRET live-cell target engagement, NanoLuc-CDK9/Cyclin K in HEK-293; type: binding; conditions: CDK9/K, 10µM
Sequence of CDK9/Cyclin K (P50750 whole entry): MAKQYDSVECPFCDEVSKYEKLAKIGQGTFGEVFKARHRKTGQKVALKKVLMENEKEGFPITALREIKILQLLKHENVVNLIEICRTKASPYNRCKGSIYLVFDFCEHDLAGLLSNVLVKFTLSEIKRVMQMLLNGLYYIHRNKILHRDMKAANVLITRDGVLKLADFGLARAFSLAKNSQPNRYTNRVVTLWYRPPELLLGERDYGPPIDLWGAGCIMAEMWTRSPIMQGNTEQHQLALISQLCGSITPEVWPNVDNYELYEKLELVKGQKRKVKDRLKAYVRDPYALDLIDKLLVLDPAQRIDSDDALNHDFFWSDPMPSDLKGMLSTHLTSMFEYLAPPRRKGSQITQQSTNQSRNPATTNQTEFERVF
Sequence of CDK9/Cyclin K (O75909 whole entry partner): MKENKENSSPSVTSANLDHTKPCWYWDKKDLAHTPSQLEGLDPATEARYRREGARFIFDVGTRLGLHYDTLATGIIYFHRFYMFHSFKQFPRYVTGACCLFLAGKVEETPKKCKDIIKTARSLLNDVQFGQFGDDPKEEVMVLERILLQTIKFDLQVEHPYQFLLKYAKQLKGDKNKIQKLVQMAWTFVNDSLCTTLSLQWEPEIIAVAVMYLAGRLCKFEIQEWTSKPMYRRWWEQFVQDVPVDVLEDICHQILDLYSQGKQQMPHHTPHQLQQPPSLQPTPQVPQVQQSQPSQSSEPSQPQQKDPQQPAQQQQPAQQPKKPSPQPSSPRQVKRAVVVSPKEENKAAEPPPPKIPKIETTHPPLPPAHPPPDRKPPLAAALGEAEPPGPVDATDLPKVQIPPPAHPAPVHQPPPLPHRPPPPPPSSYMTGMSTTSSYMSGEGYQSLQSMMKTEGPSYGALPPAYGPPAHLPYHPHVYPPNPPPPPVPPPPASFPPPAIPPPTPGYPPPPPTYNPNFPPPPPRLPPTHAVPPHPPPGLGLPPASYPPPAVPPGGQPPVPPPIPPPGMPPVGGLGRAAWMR

[10] = target: T1, CDK11A/Cyclin L2 (Homo sapiens, UniProt Q9UQ88); assay: NanoBRET live-cell target engagement, CDK11A-NanoLuc/Cyclin L2 in HEK-293; type: binding; conditions: CDK11a/L2, 10µM
T1 sequence (Q9UQ88 1-783): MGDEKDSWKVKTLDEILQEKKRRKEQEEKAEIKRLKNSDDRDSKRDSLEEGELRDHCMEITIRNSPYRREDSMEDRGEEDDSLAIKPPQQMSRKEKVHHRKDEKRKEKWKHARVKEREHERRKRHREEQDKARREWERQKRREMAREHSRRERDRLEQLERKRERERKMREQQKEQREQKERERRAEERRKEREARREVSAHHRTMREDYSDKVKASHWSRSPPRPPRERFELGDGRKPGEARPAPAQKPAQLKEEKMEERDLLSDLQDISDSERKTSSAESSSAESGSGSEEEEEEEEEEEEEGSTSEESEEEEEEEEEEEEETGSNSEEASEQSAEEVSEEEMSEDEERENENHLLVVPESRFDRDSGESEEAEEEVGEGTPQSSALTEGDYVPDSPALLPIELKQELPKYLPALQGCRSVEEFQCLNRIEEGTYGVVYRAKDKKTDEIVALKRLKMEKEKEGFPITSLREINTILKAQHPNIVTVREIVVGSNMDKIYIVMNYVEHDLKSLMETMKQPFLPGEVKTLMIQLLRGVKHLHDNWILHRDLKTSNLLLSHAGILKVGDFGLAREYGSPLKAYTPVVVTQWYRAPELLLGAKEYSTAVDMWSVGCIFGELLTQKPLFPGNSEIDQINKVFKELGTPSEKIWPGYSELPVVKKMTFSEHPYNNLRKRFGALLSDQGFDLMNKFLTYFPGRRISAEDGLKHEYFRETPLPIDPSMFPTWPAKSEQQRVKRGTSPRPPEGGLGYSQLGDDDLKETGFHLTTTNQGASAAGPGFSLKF

[11] = target: CDK4/Cyclin D1 (Homo sapiens, UniProt P11802); assay: NanoBRET live-cell target engagement, NanoLuc-CDK4/Cyclin D1 in HEK-293; type: binding; conditions: CDK4/D1, 10µM
[12] = target: CDK19/Cyclin C (Homo sapiens, UniProt Q9BWU1); assay: NanoBRET live-cell target engagement, NanoLuc-CDK19/Cyclin C in HEK-293; conditions: CDK19/C, 10µM
[13] = target: CDK1/Cyclin E1 (Homo sapiens, UniProt P06493); assay: NanoBRET live-cell target engagement, CDK1-NanoLuc/Cyclin E1 in HEK-293; type: binding; conditions: CDK1/E1, 10µM
[14] = target: CDK12/Cyclin K (Homo sapiens, UniProt Q9NYV4); assay: NanoBRET live-cell target engagement, CDK12-NanoLuc/Cyclin K in HEK-293; type: binding; conditions: CDK12/K, 10µM
Sequence of CDK12/Cyclin K (Q9NYV4 1-1481 isoform Q9NYV4-2): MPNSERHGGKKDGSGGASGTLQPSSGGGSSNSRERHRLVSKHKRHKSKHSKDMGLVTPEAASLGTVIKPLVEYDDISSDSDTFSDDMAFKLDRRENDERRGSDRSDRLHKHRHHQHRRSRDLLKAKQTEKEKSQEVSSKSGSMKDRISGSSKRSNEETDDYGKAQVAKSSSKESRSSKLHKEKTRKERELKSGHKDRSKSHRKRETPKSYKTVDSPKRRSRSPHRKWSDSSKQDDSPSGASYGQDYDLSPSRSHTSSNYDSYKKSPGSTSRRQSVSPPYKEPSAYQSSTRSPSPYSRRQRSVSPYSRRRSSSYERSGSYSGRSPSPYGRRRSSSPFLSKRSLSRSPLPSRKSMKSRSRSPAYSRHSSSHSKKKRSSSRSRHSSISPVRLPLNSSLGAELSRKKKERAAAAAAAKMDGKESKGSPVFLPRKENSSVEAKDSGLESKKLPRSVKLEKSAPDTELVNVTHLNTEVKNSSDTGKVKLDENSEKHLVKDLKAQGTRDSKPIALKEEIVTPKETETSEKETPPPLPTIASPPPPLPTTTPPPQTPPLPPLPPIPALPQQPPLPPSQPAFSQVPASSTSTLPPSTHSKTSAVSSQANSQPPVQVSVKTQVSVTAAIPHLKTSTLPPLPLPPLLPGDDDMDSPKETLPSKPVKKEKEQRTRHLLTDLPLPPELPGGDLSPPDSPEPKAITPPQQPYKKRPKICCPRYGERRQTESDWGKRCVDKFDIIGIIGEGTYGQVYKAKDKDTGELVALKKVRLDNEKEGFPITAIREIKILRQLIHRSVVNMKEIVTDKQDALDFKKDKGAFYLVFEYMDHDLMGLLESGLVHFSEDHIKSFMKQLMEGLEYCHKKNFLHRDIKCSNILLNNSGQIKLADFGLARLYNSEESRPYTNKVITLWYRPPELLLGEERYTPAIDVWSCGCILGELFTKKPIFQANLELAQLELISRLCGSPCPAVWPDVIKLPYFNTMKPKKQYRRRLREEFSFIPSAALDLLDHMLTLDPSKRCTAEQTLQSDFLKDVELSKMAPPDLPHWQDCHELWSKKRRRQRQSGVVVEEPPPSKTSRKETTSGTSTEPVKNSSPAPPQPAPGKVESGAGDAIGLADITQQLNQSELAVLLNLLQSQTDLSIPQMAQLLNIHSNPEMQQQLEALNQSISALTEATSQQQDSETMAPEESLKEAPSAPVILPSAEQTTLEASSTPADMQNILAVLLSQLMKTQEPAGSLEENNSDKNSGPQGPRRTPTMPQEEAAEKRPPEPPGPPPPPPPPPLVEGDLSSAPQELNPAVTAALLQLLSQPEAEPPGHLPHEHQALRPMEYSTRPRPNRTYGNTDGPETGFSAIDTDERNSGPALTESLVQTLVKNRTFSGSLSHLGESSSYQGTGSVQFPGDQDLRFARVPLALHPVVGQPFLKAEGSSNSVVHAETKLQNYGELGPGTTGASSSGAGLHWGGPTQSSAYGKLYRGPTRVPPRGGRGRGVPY
Sequence of CDK12/Cyclin K (O75909 whole entry partner): as the sequence (O75909 whole entry partner) above

[15] = target: CDK18/Cyclin Y (Homo sapiens, UniProt Q07002); assay: NanoBRET live-cell target engagement, CDK18-NanoLuc/Cyclin Y in HEK-293; type: binding; conditions: CDK18/Y, 10µM
[16] = target: CDK16/Cyclin Y (Homo sapiens, UniProt Q00536); assay: NanoBRET live-cell target engagement, CDK16-NanoLuc/Cyclin Y in HEK-293; type: binding; conditions: CDK16/Y; 10µM
[17] = target: CDK10/Cyclin L2 (Homo sapiens, UniProt Q15131); assay: NanoBRET live-cell target engagement, CDK10-NanoLuc/Cyclin L2 in HEK-293; conditions: CDK10/L2, 10µM
[18] = target: CDK14/Cyclin Y (Homo sapiens, UniProt O94921); assay: NanoBRET live-cell target engagement, CDK14-NanoLuc/Cyclin Y in HEK-293; type: binding; conditions: CDK14/Y, 10µM
Sequence of CDK14/Cyclin Y (O94921 whole entry): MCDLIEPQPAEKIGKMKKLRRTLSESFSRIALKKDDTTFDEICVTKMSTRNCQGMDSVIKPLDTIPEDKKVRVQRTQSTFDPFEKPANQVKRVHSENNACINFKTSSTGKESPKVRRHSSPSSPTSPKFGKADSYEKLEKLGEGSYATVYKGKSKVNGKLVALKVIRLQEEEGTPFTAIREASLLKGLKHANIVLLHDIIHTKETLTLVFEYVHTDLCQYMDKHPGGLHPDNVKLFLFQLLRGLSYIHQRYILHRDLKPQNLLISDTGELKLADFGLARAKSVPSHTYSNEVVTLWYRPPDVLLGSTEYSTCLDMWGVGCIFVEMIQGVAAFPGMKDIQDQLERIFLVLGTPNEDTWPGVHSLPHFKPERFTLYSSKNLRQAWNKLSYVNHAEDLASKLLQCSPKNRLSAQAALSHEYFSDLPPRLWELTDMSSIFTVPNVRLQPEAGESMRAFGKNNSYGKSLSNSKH
Sequence of CDK14/Cyclin Y (Q8ND76 whole entry partner): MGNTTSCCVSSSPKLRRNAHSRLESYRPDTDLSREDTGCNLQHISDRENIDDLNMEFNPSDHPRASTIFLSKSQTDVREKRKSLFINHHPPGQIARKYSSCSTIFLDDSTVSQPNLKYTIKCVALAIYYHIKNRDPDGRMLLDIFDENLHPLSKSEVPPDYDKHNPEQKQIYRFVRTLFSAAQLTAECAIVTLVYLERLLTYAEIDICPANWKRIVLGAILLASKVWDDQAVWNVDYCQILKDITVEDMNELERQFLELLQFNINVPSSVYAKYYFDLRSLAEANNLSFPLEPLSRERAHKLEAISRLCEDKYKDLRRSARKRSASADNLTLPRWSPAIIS

[19] = target: CDK8/Cyclin C (Homo sapiens, UniProt P49336); assay: NanoBRET live-cell target engagement, NanoLuc-CDK8/Cyclin C in HEK-293; type: binding; conditions: CDK8/C, 10µM
Sequence of CDK8/Cyclin C (P49336 whole entry): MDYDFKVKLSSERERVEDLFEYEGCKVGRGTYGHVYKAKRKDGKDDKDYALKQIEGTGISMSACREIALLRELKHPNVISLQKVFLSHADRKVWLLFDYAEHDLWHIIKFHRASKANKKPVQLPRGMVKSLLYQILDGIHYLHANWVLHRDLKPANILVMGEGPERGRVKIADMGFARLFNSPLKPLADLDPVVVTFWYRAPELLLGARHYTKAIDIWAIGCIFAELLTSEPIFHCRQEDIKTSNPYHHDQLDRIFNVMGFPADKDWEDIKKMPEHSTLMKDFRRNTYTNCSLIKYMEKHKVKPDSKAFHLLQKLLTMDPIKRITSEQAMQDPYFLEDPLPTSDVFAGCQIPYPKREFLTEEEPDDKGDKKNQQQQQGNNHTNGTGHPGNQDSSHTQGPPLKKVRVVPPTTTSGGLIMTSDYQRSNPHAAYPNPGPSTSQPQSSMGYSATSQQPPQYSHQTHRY
Sequence of CDK8/Cyclin C (P24863 whole entry partner): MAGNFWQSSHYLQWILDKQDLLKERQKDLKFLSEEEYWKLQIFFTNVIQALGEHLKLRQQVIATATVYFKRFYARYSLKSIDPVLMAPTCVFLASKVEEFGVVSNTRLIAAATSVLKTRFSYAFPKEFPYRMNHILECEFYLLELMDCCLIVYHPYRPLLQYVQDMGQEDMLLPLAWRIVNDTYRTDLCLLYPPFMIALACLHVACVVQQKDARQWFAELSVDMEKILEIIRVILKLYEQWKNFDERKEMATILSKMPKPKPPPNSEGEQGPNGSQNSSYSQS

[20] = target: CDK6/Cyclin D1 (Homo sapiens, UniProt Q00534); assay: NanoBRET live-cell target engagement, NanoLuc-CDK6/Cyclin D1 in HEK-293; type: binding; conditions: CDK6/D1, 10µM
[21] = target: CDK11B/Cyclin L2 (Homo sapiens, UniProt P21127); assay: NanoBRET live-cell target engagement, CDK11B-NanoLuc/Cyclin L2 in HEK-293; type: binding; conditions: CDK11b/L2, 10µM

CCC(CO)Nc1nc(Nc2cccc(-c3ccccn3)c2)c2ncn(C(C)C)c2n1.Cl.O [(R) - DRF053]
Inhibition at 10µM (%) Replicate 1 [1]: 25.0% | Inhibition at 10µM (%) Replicate 2 [1]: 29.8% | Inhibition at 10µM (%) Average ([1]; average of replicates): 27.4% | Inhibition at 10µM (%) Replicate 1 [2]: 16.2% | Inhibition at 10µM (%) Replicate 2 [2]: 18.8% | Inhibition at 10µM (%) Replicate 1 [3]: 45.0% | Inhibition at 10µM (%) Replicate 2 [3]: 59.3% | Inhibition at 10µM (%) Average ([3]; average of replicates): 52.2% | Inhibition at 10µM (%) Replicate 1 [4]: 75.6% | Inhibition at 10µM (%) Replicate 2 [4]: 76.1% | Inhibition at 10µM (%) Average ([4]; average of replicates): 75.9% | Inhibition at 10µM (%) Replicate 1 [5]: 69.5% | Inhibition at 10µM (%) Replicate 2 [5]: 71.6% | Inhibition at 10µM (%) Average ([5]; average of replicates): 70.6% | Inhibition at 10µM (%) Replicate 1 [6]: 7.7% | Inhibition at 10µM (%) Replicate 2 [6]: -21.5% | Inhibition at 10µM (%) Average ([6]; average of replicates): -6.9% | Inhibition at 10µM (%) Replicate 1 [7]: 29.1% | Inhibition at 10µM (%) Replicate 2 [7]: 25.1% | Inhibition at 10µM (%) Average ([7]; average of replicates): 27.1% | Inhibition at 10µM (%) Replicate 1 [8]: 72.1% | Inhibition at 10µM (%) Replicate 2 [8]: 71.8% | Inhibition at 10µM (%) Average ([8]; average of replicates): 72.0% | Inhibition at 10µM (%) Replicate 1 [9]: 18.8% | Inhibition at 10µM (%) Replicate 2 [9]: 27.7% | Inhibition at 10µM (%) Average ([9]; average of replicates): 23.2% | Inhibition at 10µM (%) Replicate 1 [10]: 8.6% | Inhibition at 10µM (%) Replicate 2 [10]: 33.3% | Inhibition at 10µM (%) Average ([10]; average of replicates): 21.0% | Inhibition at 10µM (%) Replicate 1 [11]: 19.9% | Inhibition at 10µM (%) Replicate 2 [11]: 22.3% | Inhibition at 10µM (%) Average ([11]; average of replicates): 21.1% | Inhibition at 10µM (%) Replicate 1 [12]: 16.0% | Inhibition at 10µM (%) Replicate 2 [12]: -0.8% | Inhibition at 10µM (%) Average ([12]; average of replicates): 7.6% | Inhibition at 10µM (%) Replicate 1 [13]: 46.5% | Inhibition at 10µM (%) Replicate 2 [13]: 41.5% | Inhibition at 10µM (%) Average ([13]; average of replicates): 44.0% | Inhibition at 10µM (%) Replicate 1 [14]: 4.1% | Inhibition at 10µM (%) Replicate 2 [14]: -13.6% | Inhibition at 10µM (%) Average ([14]; average of replicates): -4.7% | Inhibition at 10µM (%) Replicate 1 [15]: 37.9% | Inhibition at 10µM (%) Replicate 2 [15]: 40.9% | Inhibition at 10µM (%) Average ([15]; average of replicates): 39.4% | Inhibition at 10µM (%) Replicate 1 [16]: 15.7% | Inhibition at 10µM (%) Replicate 2 [16]: 16.9% | Inhibition at 10µM (%) Replicate 1 [17]: 13.4% | Inhibition at 10µM (%) Replicate 2 [17]: 27.0% | Inhibition at 10µM (%) Average ([17]; average of replicates): 20.2% | Inhibition at 10µM (%) Replicate 1 [18]: 8.2% | Inhibition at 10µM (%) Replicate 2 [18]: 16.5% | Inhibition at 10µM (%) Average ([18]; average of replicates): 12.3% | Inhibition at 10µM (%) Replicate 1 [19]: 6.6% | Inhibition at 10µM (%) Replicate 2 [19]: -1.1% | Inhibition at 10µM (%) Average ([19]; average of replicates): 2.7% | Inhibition at 10µM (%) Replicate 1 [20]: 6.0% | Inhibition at 10µM (%) Replicate 2 [20]: 6.7% | Inhibition at 10µM (%) Average ([20]; average of replicates): 6.4% | Inhibition at 10µM (%) Replicate 1 [21]: 11.4% | Inhibition at 10µM (%) Replicate 2 [21]: 7.8% | Inhibition at 10µM (%) Average ([21]; average of replicates): 9.6%
